Data: patent US4665064A, “Pharmaceutical compositions and methods for increasing zinc levels” (National Research Development Corporation, priority 1983, dated 1987)
Like-named read-outs stand apart in the source and are kept apart here.

What was measured:
physchem = assay type: physicochemical; conditions: for Kpart compared with maltol (compound and its 2:1 zinc complex): in words
Description: A good indication of the physical properties of a ligand-providing compound and of an zinc complex in this respect is provided by the value of the partition coefficient (Kpart)obtained on partition between n-octanol and Tris hydrochloride (20 mM, pH 7.4; Tris representing 2-amino-2 hydroxymethylpropane 1,3-diol) at 20° C. and expressed as the ratio (concentration in organic phase)/(concentration in aqueous phase). Preferred complexes show a value of Kpart for each ligand-providing compound of above 0.02 or 0.05 but less than 3.0, especially of above 0.2 but less than 1.0, together with a value of Kpart for the 2:1 zinc(II) complex of above 0.02 but less than 6.0, especially of 0.05 or 0.1 to 1.0. The value of Kpart for maltol is 0.66 and for the neutral 2:1 maltol:zinc complex is 0.11 which values lie in the especially preferred ranges. It will be appreciated, however, that the wide range of ligands which may be present in zinc complexes according to the present invention allows the preparation of complexes having partition coefficients lying throughout the entire ranges given. Thus, for example, a 2:1 complex having a higher partition coefficient than 0.1 may be obtained by using maltol as one ligand and another compound as the second ligand. Alternatively, higher partition coefficients may be obtained, if desired, by the use of hydroxypyrone compounds containing additional and/or larger aliphatic hydrocarbon group substituents on the ring.
Partition data on zinc complexes and on ligand-providing compounds
The partition coefficient Kpart, being the ratio (concentration in n-octanol)/(concentration in aqueous phase) on partition between n-octanol and aqueous tris hydrochloride (20 mM, pH 7.4; Tris represents 2-amino-2-hydroxymethylpropane 1,3-diol), is measured at 20° C. for zinc complexes containing various ligands and for their corresponding ligand-providing compounds as listed in Table 1. In the case of certain of the complexes the partition coefficient for the 2:1 ligand:zinc(II) complex is also measured in the presence of various amounts of the metal-free ligand-providing compound in excess of a b 1:2 zinc(II):compound ratio.
In each case, the material is dissolved initially in the aqueous Tris hydrochloride at a concentration of 10^-4 M in relation to zinc. The zinc complexes radiolabelled with ^65 Zn are prepared in situ in the buffer by the addition of ^65 Zn labelled ZnCl2 to an appropriate amount of the metal-free ligand-providing compound and subsequent adjustment of the pH to 7.4 by the addition of Tris free base. Acid washed glassware is used throughout and, following mixing of 5 ml of the 10^-4 M aqueous solution with 5 ml of n-octanol for 1 minute, the aqueous n-octanol mixture is centrifuged at 1,000 g for 30 seconds. […]

inverted rat jejunal sac = assay type: in vitro ADME, rat (male Sprague Dawley); conditions: 37° C., up to 1 hour, Krebs Ringer buffer
Excerpt: In the case of the hydroxypyrone ligands it will be seen that the uptake again increases with the increase in the amount of free compound which is present as a result of an increase in the amount of the 2:1 complex which is present.

[1] = recognised property; in words; cited from earlier work
human erythrocytes = assay type: in vitro ADME; conditions: not told
Description: The zinc complex was formed in situ in the buffered solution using ^65 Zn labelled ZnSO4 at a concentration of 0.25 mM together with maltol or ethylpyromeconic acid in a molar ratio of zinc:compound of 1:0, 1:2, 1:5, 1:10 or 1:20, i.e. the concentration of the ligand-providing compound being 0, 0.5, 1.25, 2.5 or 5 mM, respectively. The proportions of 1:2, 1:5, 1:10 and 1:20 provide an increasing amount of the neutral 2:1 zinc(II) complex together with varying amounts of the free compound as explained in Example 4, a small amount of Tris free base (to about 2 mM) being added to avoid an acid pH on reaction to form the complex.
It will be seen that the uptake increases with an increase in the amount of free compound present as the proportion of zinc present as the 2:1 ligand:zinc(II) complex is increased through the mass action effect.

apotransferrin = assay: Ability of zinc complexes to donate zinc to apotransferrin; assay type: biochemical; conditions: apotransferrin 10^-4 M, ZnSO4 10^-4 M with 10 molar proportion of maltol, pH 7.4, 37° C., 10 minutes
Description: Apotransferrin (10^-4 M) and the ^65 Zn radiolabelled zinc complex of maltol (the complex being prepared in situ in the buffer using ^65 Zn radiolabelled ZnSO4 at a concentration of 10^-4 M and a 10 molar proportion of maltol) were incubated together in Tris hydrochloride (50 mM, buffered to pH 7.4) at 37° C. for 10 minutes when a 1 ml aliquot was removed from the medium and added to a PD10 column. 0.5 ml fractions were collected directly into scintillation vials for counting.

[2] = in words

CCc1occc(=O)c1O [ethylpyromeconic acid, 2-ethyl-3-hydroxy-4-pyrone, reference compound]
Kpart compared with maltol (compound and its 2:1 zinc complex) (physchem): higher than those for maltol
logD (physchem; n-octanol/tris buffer, pH 7.4): -0.125

Cc1occc(=O)c1O [maltol, 3-hydroxy-2-methyl-4-pyrone, reference compound]
Free compound Kpart (physchem; free ligand-providing compound, n-octanol/Tris hydrochloride 20 mM pH 7.4, 20° C.): 0.66

CCn1cccc(O)c1=O.[Zn] [zinc 1-ethyl-3-hydroxypyrid-2-one]
Uptake of zinc into serosal compartment of rat jejunal sac (inverted rat jejunal sac; Zinc:compound 1:2): 36.4 n. mole
Uptake of zinc into serosal compartment of rat jejunal sac (inverted rat jejunal sac; Zinc:compound 1:10): 24.2 n. mole

CC(=O)[O-].CC(=O)[O-].[Zn+2] [zinc acetate]
emetic property [1]: recognised emetics

CCc1occc(=O)c1[O-].CCc1occc(=O)c1[O-].[Zn+2] [zinc ethylpyromeconic acid]
Kpart compared with maltol (compound and its 2:1 zinc complex) (physchem): higher than those for maltol
uptake of the 2:1 complex in tests on the permeation of erythrocytes (human erythrocytes): greater uptake

Cc1occc(=O)c1O.[Zn] [zinc maltol]
zinc removed from the zinc complex (apotransferrin): over 95%
inhibition of the uptake of zinc (everted rat jejunum): no inhibition on the uptake of zinc
lability [2]: extremely labile

O=S(=O)([O-])[O-].[Zn+2] [zinc sulphate]
emetic property [1]: recognised emetics

[Zn+2] [zinc]
non-specific binding to the mucosal surface (everted rat jejunum): rapidly removed from the incubation medium by binding to the mucosal surface
permeation (everted rat jejunum): little permeation occurs
